In patent US20110045032A1 (priority 2001, published 2011):
“Also recorded” adds a separate entry of the source.

How the values were obtained:
[1] = test system: dust mite-sensitized cynomolgus monkeys; assay: Early phase pulmonary function response to allergen (Example 24); format: in vivo
Method: This study defines the effect of 5 days of treatment with DHEA-S on allergen-induced early phase response, and pulmonary inflammation in dust mite-sensitized cynomolgus monkeys. Baseline parameters were measured the week prior to treatment. DHEA-S (5 mg/ml, 2 ml nebulized) or an equivalent volume of saline was delivered once per day via nebulization (Pari LC+) through a canine facemask covering the nose and mouth on days 1 through 5. Allergen challenge and pulmonary function testing were performed on day 3 several hours after drug treatment, and broncho-alveolar lavage fluid BALF) was collected 48 hours post-challenge. The study includes 6 animals studied under a crossover design with a minimum of 4 weeks rest between study arms. The treatment with DHEA-S led to the following changes in the disease status of the animals:
Effects on airway obstruction were measured by changes in dynamic compliance in response to allergen challenge. Allergic Cynomolgus monkeys were monitored for 15 minutes following allergen challenge and the values plotted against time. Changes in dynamic compliance were determined by the % change in compliance as compared to the animal's initial saline value recorded prior to challenge. Changes in response to allergen and/or treatment were calculated using the area under the curve (AUC) where an AUC unit is defined as % change×minutes. Treatment with DHEA-S attenuated the drop in airway compliance following allergen challenge by 87% as compared to saline treatment. With saline treatment, the total AUC was −394±127 units compared to −49±116 units for animals treated with DHEA-S. See, FIGS. 4.3.1.1; 4.3.1.2. This difference in the total AUC for vehicle and DHEA-S treated animals was determined to be significant using Student's t-test for paired observations, p=0.035. Likewise, treatment with DHEA-S attenuated the increase in airway resistance following allergen challenge by 90% as compared to saline treatment.

[2] = test system: dust mite-sensitized rabbits; assay: Pulmonary function after allergen challenge, intratracheal powder (Example 25); format: in vivo
Method: (§1) This study defines the effect of 7 days of treatment with DHEA-S on allergen-induced bronchial hyperresponsiveness (BHR), early and late phase responses, and pulmonary inflammation in dust mite-sensitized rabbits. Baseline BHR and inflammation were first determined. The following week, allergen challenge, pulmonary function testing and BALF were performed on the untreated rabbits. Histamine sensitivity was determined 24 hours post allergen challenge. Rabbits were rested for 3 weeks then baseline values were re-established. The following week, DHEA-S (5 mg/day) was delivered once a day for 7 days via an intratracheal powder injector through the endrotracheal tube of the anesthetized rabbit. On day 8, 24 hrs after the last treatment, allergen challenge, pulmonary function testing and BALF were performed as previously. On day 9, 24 hrs after allergen challenge, a histamine challenge was performed. The drug was not micronized prior to use thus only a portion of the administered date was expected to reach the deep lung. The study includes 4 animals studied under a crossover design. The treatment with DHEA-S led to changes in the disease status of the animals that are described in the following paragraph.
Effects on airway obstruction were measured by changes in dynamic compliance and total lung resistance in response to allergen challenge. Rabbits were monitored for 6 hours following allergen challenge and the values plotted against time. Changes in dynamic compliance were determined by the % change in compliance as compared to the animal's initial saline value recorded prior to challenge. Changes in response to allergen and/or treatment were calculated using the area under the curve (AUC) where an AUC unit is defined as % change×hour. Treatment with DHEA-S attenuated the drop in airway compliance following allergen challenge by 86% as compared to allergen alone. Following allergen alone the total AUC was −146 units compared to −20 units for animals treated with DHEA-S. This difference in the total AUC for vehicle and DHEA-S treated animals was determined to be significant using Student's t-test for paired observations, p=0.036. Similarly, treatment with DHEA-S attenuated the increase in airway resistance following allergen challenge by 54% as compared to allergen alone. […] Variability during the late phase kept differences in AUC between the vehicle and drug treatment groups from being significant when analyzed using a paired t-test.

[3] = test system: dust mite-sensitized rabbits; assay: BALF cell counts, intratracheal powder (Example 25); format: in vivo
Method: as §1

[4] = test system: dust mite-sensitized rabbits; assay: Lung histology (Example 26); format: in vivo; settings: blinded veterinary pathologist, scale of 0 to 4; vs vehicle control
Method: This study defines the effect of 7 days of treatment with DHEA-S on allergen-induced bronchial hyperresponsiveness (BHR), early and late phase responses, and pulmonary inflammation in dust mite-sensitized rabbits. Baseline BHR and inflammation were first determined. DHEA-S (5 mg/ml, 2 ml nebulized) or an equivalent volume of vehicle was delivered once per day via nebulization through a pediatric facemask covering the nose and mouth on days 1 through 7. On day 8, 24 hours after the last treatment, allergen challenge, pulmonary function testing and BALF were performed. On day 9, 24 hours after allergen challenge a histamine challenge was performed and the lungs removed for histology. The study includes 5 animals studied under a crossover design. […]
Effects on interstitial inflammation were evaluated by histology. A veterinary pathologist evaluated hematoxylin and eosin stained sections in a blinded manner. Sections were scored for inflammatory parameters using a scale of 0 to 4 with 0 representing no finding and 4 representing severe. […] All of the following parameters were scored lower in the DHEA-S treated lungs compared to the vehicle control group: cuffing of the airways and blood vessels by inflammatory cells, bronchial-associated lymphoid tissue hyperplasia, and bronchitis/bronchiolitis. […]

[5] = Serum and BAL DHEA and DHEA-S levels (Example 26); format: in vivo, rabbits; settings: rabbit, serum, inhaled, 10 mg/day; twenty-four hours after the last of seven daily treatments; prior 4.7
Method: This study defines the effect of 7 days of treatment with DHEA-S on allergen-induced bronchial hyperresponsiveness (BHR), early and late phase responses, and pulmonary inflammation in dust mite-sensitized rabbits. Baseline BHR and inflammation were first determined. DHEA-S (5 mg/ml, 2 ml nebulized) or an equivalent volume of vehicle was delivered once per day via nebulization through a pediatric facemask covering the nose and mouth on days 1 through 7. On day 8, 24 hours after the last treatment, allergen challenge, pulmonary function testing and BALF were performed. On day 9, 24 hours after allergen challenge a histamine challenge was performed and the lungs removed for histology. The study includes 5 animals studied under a crossover design. There was a 3 week resting period between study arms and lungs were taken during the second treatment arm only. The treatment with DHEA-S led to the changes in the disease status of the animals described in the following paragraph.

CC12CCC3C(CC=C4CC(OS(=O)(=O)[O-])CCC43C)C1CCC2=O.[Na+] (stereo not shown) [DHEA-S, Dehydroepiandrosterone sulfate]
total area under the curve for the change in compliance following allergen challenge ([1]; AUC unit = % change×minutes, 15 minutes, saline −394±127): −49±116 units | total area under the curve for the change in resistance following allergen challenge ([1]; AUC unit = % change×minutes, saline 564±266): 54±90 units | attenuation of the increase in airway resistance following allergen challenge ([1]; compared to saline treatment): 90% | attenuation of the drop in airway compliance following allergen challenge ([1]; nebulized 5 mg/ml, 2 ml once per day, 5 days, compared to saline treatment): 87% | attenuation of the drop in airway compliance following allergen challenge ([2]; 5 mg/day intratracheal powder, 7 days, compared to allergen alone): 86% | total area under the curve for the change in resistance following allergen challenge ([2]; 6 hours, control 1069±243, not significant): 495 | total area under the curve for the change in compliance following allergen challenge ([2]; AUC unit = % change×hour, 6 hours, control −146±29): −20 units | attenuation of the increase in airway resistance following allergen challenge ([2]; compared to allergen alone): 54% | reduction of airway resistance changes ([2]; in the 6 hours after aerosol dust mite challenge): over 200% | total area under the curve for the change in compliance following allergen challenge ([2]; inhaled or nasal, 6 h): −20±23 units | 24-hour histamine responsiveness following allergen challenge ([2]; rabbit, in vivo): downward shift | neutrophils in BALF ([3]; 15 minutes after dust mite challenge, control 10.2): 1.3 ×10^4 cells/ml | macrophages in BALF ([3]; 15 minutes after dust mite challenge, control 29.6): 19.4 ×10^4 cells/ml | neutrophils in BALF ([3]; 6 hours after challenge, control 43.8): 32.2 ×10^4 cells/ml | eosinophils in BALF ([3]; 24 hours after allergen challenge, control 3.2): 2.0 ×10^4 cells/ml | macrophages in BALF ([3]; 24 hours after allergen challenge, control 24.1): 17.8 ×10^4 cells/ml | inhibition of eosinophils ([3]; at 24 hours): slight mean inhibition | histological evaluation of airway inflammation [4]: reduced inflammatory cell cuffing of the vessels and bronchi, bronchus-associated lymphoid tissue hyperplasia, and epithelial sloughing; also recorded: scored lower | concentration at 24 h after the last dose [5]: 49 ng/mL
